Molecules are shown by their SMILES. Read-outs that look alike come from different tables or passages of the source.

These results are taken from patent publication US20260027099A1, “OPHTHALMIC COMPOSITIONS COMPRISING BILASTINE, A BETA-CYCLODEXTRIN AND AT LEAST ONE GELLING AGENT” (FAES FARMA, S.A., priority 2018, published 2026).

Series [1] can be described thus: Ocular in vivo biodistribution, bilastine tissue concentration by LC-MS/MS. Also on record: species or system Dutch Belted rabbits. Conditions: Dutch Belted, topical, 24 hours post-administration, rabbit, 30 μL of 0.6% w/v formulation in each eye, single occasion. The protocol:
The aqueous ophthalmic formulations of bilastine were prepared at a bilastine concentration of 0.6% w/v. The excipients were as indicated above in Table 1, i.e., also comprised HPB 90 mg/mL, methylcellulose 0.1 mg/mL, sodium hyaluronate 1 mg/mL and glycerin 16.1 mg/mL.
42, 4-5 month-old Dutch Belted rabbits were selected as test subjects. The weight of the animals at treatment start was from 1.6 to 2.1 kg.
Animals received 30 μL of the ophthalmic formulation in each eye on a single occasion. The ophthalmic formulation was placed directly on both eyes of each animal by means of an automatic pipette. A new pipette tip was used for each eye.
The eyes of the test animals were not washed after instillation. Animals were weighed before administration and observed after administration to record any possible clinical sign.
Two to three animals were sacrificed at each time point (0.5, 1, 2, 4, 6, 8, 12 and 24 hours) and the following tissues from both eyes were collected: Aqueous humor, vitreous humor, cornea, conjunctiva, iris/ciliary body, crystalline lens and retina/choroid. Directly after sampling, all solid matrices were weighed (4 decimal precision) to determine the amount of each tissue collected.
Bilastine concentration was determined by LC-MS/MS.
Bilastine analyses were performed according to analytical methods: • PKH/MOA/1022 for rabbit plasma, • PKH/MOA/1042 for rabbit aqueous humor, • PKH/MOA/1043 for rabbit vitreous humor, • PKH/MOA/1028 for rabbit cornea homogenate, • PKH/MOA/1041 for rabbit iris/ciliary body homogenate, • PKH/MOA/1036 for rabbit conjunctiva homogenate, • PKH/MOA/1032 for rabbit crystalline lens homogenate, • PKH/MOA/1029 for rabbit retina/choroid homogenate, which were previously developed and validated at Eurofins|ADME BIOANALYSES according to the Guidance for Industry—Bioanalytical Method Validation—FDA May 2018 and EMA Guideline—EMEA/CHMP/EWP/192217/2009—21 Jul. 2011, in the studies 18-014A to 18-014H.
The analytical methods involved protein precipitation for plasma and involved dilution for other matrices followed by LC-MS/MS analysis using F21201RR (Bilastine-d6) as internal standard.

For series [2], the system named is histamine-induced conjunctival vascular permeability. Particulars: topical drug administered 2 to 8 hours before subconjunctival histamine challenge; Evans blue dye i.v.; cited from earlier work.

`CCOCCn1c(C2CCN(CCc3ccc(C(C)(C)C(=O)O)cc3)CC2)nc2ccccc21` [bilastine, 2-[4-(2-{4-[1-(2-Ethoxyethyl)-1H-benzimidazol-2-yl]-1-piperidinyl}ethyl)phenyl]-2-methylpropanoic acid]: the concentration at 24 h in series [1] (conjunctiva, read-out: bilastine concentration in conjunctiva (mean value)) amounted to 388 ng/g; in series [1] (cornea, read-out: bilastine concentration in cornea (mean value)), 28.7 ng/g; in series [1] (crystalline lens, read-out: bilastine concentration in crystalline lens), 0.12 ng/g; in series [1] (iris/ciliary body, read-out: bilastine concentration in iris/ciliary body) it was 12.4 ng/g; in series [1] (retina/choroid, read-out: bilastine concentration in retina/choroid), 1.91 ng/g. The “ED50 (in vivo anti-histaminic activity)” value in series [2] is 50% efficacy was not achieved.
